Consider 32 compounds from patent publication US5397774A, “Pyrazolopyrimidine and pyrimidinyl bisphosphonic esters as anti-inflammatories” (The Upjohn Company, priority 1993, dated 1995).

Structures can show the parent of a compound that is named as a salt.

The first experiment has as its system DTH granuloma (DTH GRA) lesion in mBSA-sensitized mice. In words: Delayed Type Hypersensitivity Granuloma Assay (DTH GRA) model for inflammation. Type of experiment: in vivo, mouse. The note with it: 216 h; Table 1, Formula 1 compounds; 10 mg/kg PO; mouse DTH granuloma excised after nine days. How it is done: This assay is described by Dunn, C.
Briefly, mBSA-sensitized mice have a DTH granuloma (DTH GRA) lesion induced by subcutaneously implanting a mBSA-soaked filter which is excised after nine days. Compounds are administered to the mice to determine their effect on the lesions. The results are recorded as percent inhibition. […] Inhibition of 10 to 20% is considered to indicate anti-granuloma activity.
Again, as in Table 1, the results are recorded as percent inhibition. […] Inhibition of 10 to 20% is considered to indicate anti-granuloma activity. […]
With `Cc1cc(CCC(P2(=O)OCC(C)(C)CO2)P2(=O)OCC(C)(C)CO2)n2nc(C)c(C#N)c2n1` [n, (3-(3-Cyano-2,5-dimethyl-pyrazolo(1,5-a)pyrimidin-7-yl)-propylidene)bis(5,5-dimethyl-2,2'-dioxide-1,3,2-dioxaphosphorinane)], the inhibition in vivo (as a rule, the relative decrease from the control value, in per cent) at 10 mg/kg was 45%.

Staying with this experiment, now noted: Mus musculus, 216 h; Table 2, Formula 2 compounds; tested at 1 mg/kg, PO.
On to `Cn1c(CCC(P(=O)(O)O)P(=O)(O)O)nc(-c2ccccc2)cc1=O` [q, (3-(2-(3-Methyl-4-oxo-6-phenyl-4(3H)-pyrimidinyl))-propylidine)bisphosphonic acid disodium salt], for which the inhibition in vivo at 1 mg/kg was 57%.

The experiment is the same for the next values; noted with them: Mus musculus, po, 216 h, Table 1, Formula 1 compounds; 10 mg/kg PO; mouse DTH granuloma excised after nine days.
Regarding `COP(=O)(OC)C(CCc1cc(C)nc2c(C#N)c(C)nn12)P(=O)(OC)OC` [m, (3-(3-Cyano-2,5-dimethyl-pyrazolo(1,5-a)pyrimidin-7-yl)-propylidene)bisphosphonic acid tetramethyl ester], the inhibition in vivo at 10 mg/kg was 41%.

As to `CCOP(=O)(OCC)C(CCc1c(Cl)c(C)nc2c(C#N)c(C)nn12)P(=O)(OCC)OCC` [o, (3-(6-Chloro-3-cyano-2,5-dimethyl-pyrazolo(1,5-a)pyrimidin-7-yl)-propylidene)bisphosphonic acid tetraethyl ester], the inhibition in vivo at 10 mg/kg turned out to be 53%.

As for `CCOP(=O)(OCC)C(CCc1cc(C)nc2c(I)c(-c3ccccc3)nn12)P(=O)(OCC)OCC` [j, (3-(3-Iodo-5-methyl-2-phenyl-pyrazolo(1,5-a)pyrimidin-7-yl)-propylidene)bisphosphonic acid tetraethyl ester], the inhibition in vivo at 10 mg/kg was found to be 53%.

In the case of `CCOP(=O)(OCC)C(CCc1cc(C)nc2cc(OC(=O)c3ccccc3)nn12)P(=O)(OCC)OCC` [f, (3-(2-Benzoyloxy-5-methyl-pyrazolo(1,5-a)pyrimidin-7-yl)-propylidene)bisphosphonic acid tetraethyl ester], the inhibition in vivo at 10 mg/kg is 41%.

`CCOP(=O)(OCC)C(CCc1cc(C)nc2cc(OCc3ccccc3)nn12)P(=O)(OCC)OCC` [g, (3-(2-Benzyloxy-5-methyl-pyrazolo(1,5-a)pyrimidin-7-yl)-propylidene)bisphosphonic acid tetraethyl ester]: the inhibition in vivo at 10 mg/kg was 44%.

For `CCOP(=O)(OCC)C(CCc1cc(C)nc2c(C#N)c(C)nn12)P(=O)(OCC)OCC` [a, (3-(3-Cyano-2,5-dimethyl-pyrazolo(1,5-a)pyrimidin-7-yl)propylidene)bisphosphonic acid tetraethyl ester], the inhibition in vivo at 10 mg/kg was 46%.

As to `CCOP(=O)(OCC)C(CCc1cc(C)nc2c(C#N)c(-c3ccccc3)nn12)P(=O)(OCC)OCC` [c, (3-(3-Cyano-5-methyl-2-phenyl-pyrazolo(1,5-a)pyrimidin-7-yl)-propylidene)bisphosphonic acid tetraethyl ester], the inhibition in vivo at 10 mg/kg came to 26%.

`CCOP(=O)(OCC)C(CCc1cc(C)nc2c(Br)c(C)nn12)P(=O)(OCC)OCC` [d, (3-(3-Bromo-2,5-dimethyl-pyrazolo(1,5-a)pyrimidin-7-yl)-propylidene)bisphosphonic acid tetraethyl ester]: the inhibition in vivo at 10 mg/kg was 44%.

Regarding `CCOP(=O)(OCC)C(CCc1cc(C)nc2c([N+](=O)[O-])c(C)nn12)P(=O)(OCC)OCC` [e, (3-(3-Nitro-2,5-dimethyl-pyrazolo(1,5-a)pyrimidin-7-yl)-propylidene)bisphosphonic acid tetraethyl ester], the inhibition in vivo at 10 mg/kg was determined as 41%.

For `CCCCCCOc1cc2nc(C)cc(CCC(P(=O)(OCC)OCC)P(=O)(OCC)OCC)n2n1` [h, (3-(2-Hexyloxy-5-methyl-pyrazolo(1,5-a)pyrimidin-7-yl)propylidene)-bisphosphonic acid tetraethyl ester], the inhibition in vivo at 10 mg/kg was 49%.

For `CCOP(=O)(OCC)C(CCc1cc(C)nc2cc(-c3ccccc3)nn12)P(=O)(OCC)OCC` [i, (3-(5-Methyl-2-phenyl-pyrazolo(1,5-a)pyrimidin-7-yl)-propylidene)bisphosphonic acid tetraethyl ester], the inhibition in vivo at 10 mg/kg worked out at 47%.

Staying with this experiment, now noted: Mus musculus, po, 216 h, Table 1, Formula 1 compounds; PO; footnote a: tested at 50 mg/kg.
In the case of `CCOP(=O)(OCC)C(CCc1cc(C)nc2c(Cl)c(-c3ccccc3)nn12)P(=O)(OCC)OCC` [k, (3-(3-Chloro-5-methyl-2-phenyl-pyrazolo(1,5-a)pyrimidin-7-yl)-propylidene)bisphosphonic acid tetraethyl ester], the inhibition in vivo at 50 mg/kg is 31%.

As to `CCOP(=O)(OCC)C(CCc1cc(C)nc2c(Br)c(-c3ccccc3)nn12)P(=O)(OCC)OCC` [l, (3-(3-Bromo-5-methyl-2-phenyl-pyrazolo(1,5-a)pyrimidin-7-yl)-propylidene)bisphosphonic acid tetraethyl ester], the inhibition in vivo at 50 mg/kg stood at 23%.

The same experiment, now with this note: Mus musculus, po, 216 h, Table 2, Formula 2 compounds; 10 mg/kg PO; mouse DTH granuloma excised after nine days.
On to `CCOP(=O)(OCC)C(CCc1nc(-c2ccc(Br)cc2)cc(=O)n1C)P(=O)(OCC)OCC` [aa, (3-(2-(3-Methyl-4-oxo-6-(4-bromophenyl)-4(3H)-pyrimidinyl))-propylidine)bisphosphonic acid tetraethyl ester], for which the inhibition in vivo at 10 mg/kg was found to be 20%.

As for `CCOP(=O)(OCC)C(CCc1nc(-c2cccc(C(F)(F)F)c2)cc(=O)n1C)P(=O)(OCC)OCC` [x, (3-(2-(3-Methyl-4-oxo-6-(3-trifluoromethyl-phenyl)-4(3H)-pyrimidinyl))propylidine)bisphosphonic acid tetraethyl ester], the inhibition in vivo at 10 mg/kg turned out to be 6%.

With `CCOP(=O)(OCC)C(CCc1nc(-c2cccc(OC)c2)cc(=O)n1C)P(=O)(OCC)OCC` [w, (3-(2-(3-Methyl-4-oxo-6-(3-methoxy-phenyl)-4(3H)-pyrimidinyl))-propylidine) bisphosphonic acid tetraethyl ester], the inhibition in vivo at 10 mg/kg came out at 13%.

As for `CCOP(=O)(OCC)C(CCc1nc(-c2ccc(N(C)C)cc2)cc(=O)n1C)P(=O)(OCC)OCC` [cc, (3-(2-(3-Methyl-4-oxo-6-(4-dimethylaminophenyl)-4(3H)-pyrimidinyl))-propylidine)bisphosphonic acid tetraethyl ester], the inhibition in vivo at 10 mg/kg was 63%.

As for `CCOc1ccc(-c2cc(=O)n(C)c(CCC(P(=O)(OCC)OCC)P(=O)(OCC)OCC)n2)cc1` [ee, (3-(2-(3-Methyl-4-oxo-6-(4-ethoxyphenyl)-4(3H)-pyrimidinyl))-propylidine)bisphosphonic acid tetraethyl ester], the inhibition in vivo at 10 mg/kg is 46%.

Regarding `CCOP(=O)(OCC)C(CCc1nc(-c2ccc(OC)cc2)cc(=O)n1C)P(=O)(OCC)OCC` [bb, (3-(2-(3-Methyl-4-oxo-6-(4-methoxyphenyl)-4(3H)-pyrimidinyl))-propylidine)bisphosphonic acid tetraethyl ester], the inhibition in vivo at 10 mg/kg is 22%.

As to `CCCn1c(CCC(P(=O)(OCC)OCC)P(=O)(OCC)OCC)nc(-c2ccccc2)cc1=O` [jj, (3-(2-(3-Propyl-4-oxo-6-phenyl-4(3H)-pyrimidinyl))-propylidine)bisphosphonic acid tetraethyl ester], the inhibition in vivo at 10 mg/kg was determined as 41%.

Consider `C=CCn1c(CCC(P(=O)(OCC)OCC)P(=O)(OCC)OCC)nc(-c2ccccc2)cc1=O` [t, (3-(2-(3-Allyl-4-oxo-6-phenyl-4(3H)-pyrimidinyl))-propylidine)bisphosphonic acid tetraethyl ester], for which the inhibition in vivo at 10 mg/kg came out at 7%.

For the compound `CCOP(=O)(OCC)C(CCc1nc(-c2cccc(C)c2)cc(=O)n1C)P(=O)(OCC)OCC` [v, (3-(2-(3-Methyl-4-oxo-6-(3-methyl-phenyl)-4(3H)-pyrimidinyl))-propylidine)bisphosphonic acid tetraethyl ester], the inhibition in vivo at 10 mg/kg is 40%.

As for `CCOP(=O)(OCC)C(CCc1nc(-c2cccc(F)c2)cc(=O)n1C)P(=O)(OCC)OCC` [s, (3-(2-(3-Methyl-4-oxo-6-(3-fluoro-phenyl)-4(3H)-pyrimidinyl))-propylidine)bisphosphonic acid tetraethyl ester], the inhibition in vivo at 10 mg/kg was found to be 32%.

In the case of `CCOP(=O)(OCC)C(CCc1nc(-c2ccccc2)cc(=O)n1CC)P(=O)(OCC)OCC` [ii, (3-(2-(3-Ethyl-4-oxo-6-phenyl-4(3H)-pyrimidinyl))-propylidine)bisphosphonic acid tetraethyl ester], the inhibition in vivo at 10 mg/kg is 12%.

Consider `CCOP(=O)(O)C(CCc1nc(-c2ccccc2)cc(=O)n1C)P(=O)(OCC)OCC` (centres unmarked) [rr, (3-(2-(3-Methyl-4-oxo-6-phenyl-4(3H)-pyrimidinyl))-propylidine)bisphosphonic acid triethyl ester sodium salt], for which the inhibition in vivo at 10 mg/kg was 50%.

Still in this experiment, the particulars now being: Table 2, Formula 2 compounds; 10 mg/kg PO; mouse DTH granuloma excised after nine days.
With `CCOP(=O)(OCC)C(CCc1nc2cc(Cl)ccc2c(=O)n1C)P(=O)(OCC)OCC` [oo], the % Inhibition (as a rule, the drop in the measured response relative to a control, in per cent) turned out to be 41%.

As to “3-(7-Chloro-3-(α,α,α-trifluoro-o-tolyl)-4(3H)-quinazolinone)-propylidine)bisphosphonic acid tetraethyl ester [pp]”, the “% Inhibition” value is given as 24%.

For the compound “3-(7-Chloro-3-(2-fluoro-phenyl)-4(3H)-quinazolinone)-propylidine)bisphosphonic acid tetraethyl ester [qq]”, the “% Inhibition” value stood at 29%.

The same experiment, now with this note: Table 2, Formula 2 compounds; 10 mg/kg PO; mouse DTH granuloma excised after nine days; 10 mg/kg.
For `C=CCn1c(CCC(P(=O)(OCC)OCC)P(=O)(OCC)OCC)nc(-c2ccccc2)cc1=O` [hh, (3-(2-(3-Allyl-4-oxo-6-phenyl-4(3H)-pyrimidinyl))-propylidine)bisphosphonic acid tetraethyl ester], the “% Inhibition” value stood at 11%.

As to `CCOP(=O)(OCC)C(CCc1nc(-c2ccccc2)cc(=O)n1Cc1ccccc1)P(=O)(OCC)OCC` [gg, (3-(2-(3-Benzyl-4-oxo-6-phenyl-4(3H)-pyrimidinyl))-propylidine)bisphosphonic acid tetraethyl ester], the “% Inhibition” value was determined as 20%.
